Measurements taken from PubChem BioAssay (NCI).
“And” between values parts separate entries of the source, which are not always exact repeats. Equal values may be shown once.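 Each compound was tested at five concentrations against cells in 96-well plates for 48 hours. The concentration for 50% growth inhibition is given as GI50. At the TGI there is no net growth.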

Assays:
Experiment in all cases: NCI-60 cell line screen, 48 h
BT-549 breast = system: BT-549 breast
MDA-MB-435 = system: MDA-MB-435
T-47D breast = system: T-47D breast
RXF-631 renal = system: RXF-631 renal
DLD-1 colon = system: DLD-1 colon
KM20L2 colon = system: KM20L2 colon
HOP-18 NSCLC = system: HOP-18 NSCLC
SNB-78 CNS = system: SNB-78 CNS
MDA-N = system: MDA-N

SMILES: COc1cc2c(c(OC)c1O)C(=O)C(OC)C(c1ccc(O)c(O)c1)O2 (configuration not stated)
- GI50 (BT-549 breast): 0.362 µM
- TGI (BT-549 breast): > 100 µM
- GI50 (MDA-MB-435): 0.126 µM
- GI50 (T-47D breast): 0.513 µM
- TGI (T-47D breast): 92.4 µM

SMILES: O=C1C2=C(SCCS2)C(=O)c2ccccc21
- TGI (RXF-631 renal): 3.28 µM
- TGI (DLD-1 colon): 3.53 µM
- TGI (KM20L2 colon): 3.52 µM

SMILES: CC(C)=CCCc1c(C)ccc2c1C(=O)C(=O)C(C(C)C)=C2
- TGI (DLD-1 colon): 6.51 µM
- TGI (KM20L2 colon): > 22 µM
- TGI (HOP-18 NSCLC): 8.12 µM

SMILES: CCCCCCCCSC1=CC(=O)c2nc3ccccc3c3ccnc1c23
- GI50 (BT-549 breast): > 100 µM
- TGI (BT-549 breast): > 100 µM
- GI50 (MDA-MB-435): 41.7 µM
- TGI (MDA-MB-435): > 100 µM
- GI50 (T-47D breast): 84.5 µM
- TGI (T-47D breast): > 100 µM

SMILES: CC(=O)N1[C@H](C(=O)O)CS[C@H]1c1ccncc1
- TGI (DLD-1 colon): > 100 µM
- TGI (KM20L2 colon): > 100 µM
- TGI (SNB-78 CNS): > 100 µM
- TGI (HOP-18 NSCLC): > 100 µM

SMILES: O=[S@@]1Nc2ccc(Br)cc2S1
- TGI (RXF-631 renal): > 100 µM
- TGI (DLD-1 colon): > 100 µM
- TGI (KM20L2 colon): > 100 µM
- TGI (SNB-78 CNS): > 100 µM

SMILES: CC(=O)OC(C)C(=O)C1c2cccc(O)c2C(=O)c2c(O)cc(C)cc21 (configuration not stated)
- TGI (DLD-1 colon): 3.22 µM
- TGI (KM20L2 colon): 2.72 µM

SMILES: O=C(O)c1cc(C(=O)O)cc(N2C(=O)c3ccccc3C2=O)c1
- TGI (BT-549 breast): > 100 µM
- TGI (MDA-N): > 100 µM
- TGI (MDA-MB-435): > 100 µM
- TGI (T-47D breast): > 100 µM

SMILES: COc1cc2nc(C)nc(N[C@H](C)c3cc(N)cc(C(F)(F)F)c3)c2cc1O[C@H]1CCOC1
- GI50 (BT-549 breast): 11.5 µM
- TGI (BT-549 breast): 24.2 µM
- GI50 (MDA-MB-435): 16.8 µM
- TGI (MDA-MB-435): 30.5 µM
- GI50 (T-47D breast): 16.3 µM
- TGI (T-47D breast): 41.4 µM

SMILES: O=C(O)CCSC(=O)Nc1cccc(F)c1
- TGI (KM20L2 colon): > 100 µM
- TGI (SNB-78 CNS): > 100 µM

SMILES: COc1cc(/C=C/c2cc(/C=C/c3ccc(O)c(OC)c3)n(C(=O)Nc3ccc(F)cc3)n2)ccc1O
- GI50 (BT-549 breast): 1.18 µM
- TGI (BT-549 breast): > 19.7 µM
- GI50 (MDA-MB-435): 0.214 µM
- TGI (MDA-MB-435): 0.561 µM
- GI50 (T-47D breast): 2.4 µM
- TGI (T-47D breast): 9.99 µM

SMILES: CCOC(=O)C(Sc1ccccc1)c1c(OC)cc(=O)oc1/C=[N+](/[O-])c1ccc(N(C)C)cc1 (configuration not stated)
- TGI (DLD-1 colon): > 100 µM
- TGI (KM20L2 colon): 89.2 µM
- TGI (SNB-78 CNS): 78.9 µM
- TGI (HOP-18 NSCLC): 61.6 µM

SMILES: CCNC1C2(CCCCC2)NC(=O)C12CCCCC2 (configuration not stated)
- TGI (DLD-1 colon): > 100 µM
- TGI (KM20L2 colon): > 100 µM
- TGI (SNB-78 CNS): > 100 µM

SMILES: N#CC(C#N)=c1ccc(=C2NCC3CCCN23)cc1 (configuration not stated)
- TGI (KM20L2 colon): > 100 µM
- TGI (SNB-78 CNS): > 100 µM
- TGI (HOP-18 NSCLC): > 100 µM

SMILES: Oc1ccc(Cl)cc1-c1cc(-c2ccccc2Cl)[nH]n1
- GI50 (BT-549 breast): 36 µM
- TGI (BT-549 breast): > 100 µM
- GI50 (MDA-MB-435): 8.44 µM
- TGI (MDA-MB-435): > 100 µM
- GI50 (T-47D breast): 1.61 µM
- TGI (T-47D breast): > 100 µM

SMILES: Nc1ccc(C(=O)N/C(=C\c2ccc3c(c2)OCO3)c2nc3[nH]c(=S)[nH]c(=O)c3[nH]2)cc1
- TGI (RXF-631 renal): > 100 µM
- TGI (DLD-1 colon): > 100 µM
- TGI (KM20L2 colon): > 100 µM
- TGI (SNB-78 CNS): > 100 µM

SMILES: CCN(CC)CC(C(=O)Nc1c(C)cccc1C)/C(C)=N\NC(=O)C[N+](C)(C)C (configuration not stated)
- TGI (DLD-1 colon): > 100 µM
- TGI (KM20L2 colon): > 100 µM
- TGI (SNB-78 CNS): > 100 µM

SMILES: COc1ccc(-n2/c(=N/C(=S)N(C)C)ss/c2=N\C(=S)N(C)C)cc1
- TGI (KM20L2 colon): > 100 µM
- TGI (SNB-78 CNS): > 100 µM

SMILES: c1cc2c(cc1NC1=NCCO1)CCC2
- TGI (MDA-N): > 10 µM
- TGI (MDA-MB-435): > 10 µM
- TGI (T-47D breast): > 10 µM

SMILES: Clc1cccc(Cc2cn3cc(-c4ccccc4)nc3s2)c1Cl
- GI50 (BT-549 breast): 88.2 µM
- TGI (BT-549 breast): > 100 µM
- GI50 (MDA-MB-435): 3.59 µM
- TGI (MDA-MB-435): > 100 µM
- GI50 (T-47D breast): 0.963 µM
- TGI (T-47D breast): > 100 µM

SMILES: O=C(N/C(=C\c1cc(Cl)ccc1Cl)c1nc2[nH]c(=S)[nH]c(=O)c2[nH]1)c1ccccc1
- TGI (RXF-631 renal): > 82.7 µM
- TGI (DLD-1 colon): > 64.7 µM
- TGI (KM20L2 colon): > 100 µM
- TGI (SNB-78 CNS): > 100 µM

SMILES: CCOC(=O)COc1cccc2c1C(=O)CCO2
- TGI (RXF-631 renal): > 100 µM
- TGI (DLD-1 colon): > 100 µM
- TGI (KM20L2 colon): > 100 µM
- TGI (SNB-78 CNS): > 100 µM

SMILES: Nc1cc2nc3ccccc3sc-2cc1=O
- GI50 (BT-549 breast): 1.61 µM
- TGI (BT-549 breast): 3.32 µM
- GI50 (MDA-MB-435): 1.76 µM
- TGI (MDA-MB-435): 3.26 µM
- GI50 (T-47D breast): 5.96 µM
- TGI (T-47D breast): 33.7 µM

SMILES: CC1(C)OC(=O)C(=Cc2ccc(O)cc2)C(=O)O1
- TGI (KM20L2 colon): > 100 µM
- TGI (SNB-78 CNS): > 100 µM

SMILES: Cc1ccc(-c2nnc(-c3ccc4ccccc4c3)o2)cc1
- TGI (BT-549 breast): > 93.5 µM
- TGI (MDA-N): > 100 µM
- TGI (MDA-MB-435): > 100 µM
- TGI (T-47D breast): > 100 µM

SMILES: O=C1c2ccccc2C(=O)c2sc(Nc3cccc(Cl)c3)nc21
- GI50 (BT-549 breast): 1.67 µM
- TGI (BT-549 breast): 3.04 µM
- TGI (DLD-1 colon): 3.95 µM
- GI50 (MDA-MB-435): 0.258 µM
- TGI (MDA-MB-435): 0.711 µM
- TGI (KM20L2 colon): 20.2 µM
- TGI (HOP-18 NSCLC): 3.48 µM
- GI50 (T-47D breast): 1.84 µM
- TGI (T-47D breast): 5.98 µM

SMILES: CCOC(=O)Nc1nc2ccc(OCC)cc2s1
- GI50 (BT-549 breast): > 100 µM
- TGI (BT-549 breast): > 100 µM
- GI50 (MDA-MB-435): 0.773 µM
- TGI (MDA-MB-435): 3.71 µM
- GI50 (T-47D breast): 28.8 µM
- TGI (T-47D breast): > 100 µM

SMILES: C/C(CCn1[nH]c(=O)ccc1=O)=N\O
- TGI (RXF-631 renal): > 100 µM
- TGI (DLD-1 colon): > 100 µM
- TGI (KM20L2 colon): > 100 µM
- TGI (SNB-78 CNS): > 100 µM
- TGI (HOP-18 NSCLC): > 100 µM

SMILES: O=C1NNC(=O)c2ccccc2SSc2ccccc2C(=O)NNC(=O)c2ccccc2SSc2ccccc21
- GI50 (BT-549 breast): 14.1 µM
- TGI (BT-549 breast): 50 µM and > 100 µM
- GI50 (MDA-N): 11.9 µM
- TGI (MDA-N): 50 µM and > 100 µM
- GI50 (MDA-MB-435): 16.3 µM
- TGI (MDA-MB-435): 50 µM and > 100 µM
- GI50 (T-47D breast): 2.34 µM
- TGI (T-47D breast): 50 µM and 8.18 µM
